Data taken from patent US20240246948A1, “BENZAMIDE DERIVATIVE, METHOD FOR PREPARING SAME, AND PHARMACEUTICAL COMPOSITION FOR PREVENTION OR TREATMENT OF CANCER CONTAINING SAME AS ACTIVE INGREDIENT” (HK INNO.N CORPORATION, priority 2021, published 2024).

Key:
[1] = target: Ba/F3 EGFR L858R/T790M (LT) (Homo sapiens, UniProt P00533, T790M/L858R, cells depend on it); assay: Cell growth inhibitory ability in Ba/F3 cells overexpressing EGFR L858R/T790M (MTS, CellTiter 96 AQueous); format: cell-based; conditions: 72 hours, MTS absorbance at 490 nm, read-out: Ba/F3 EGFR double mutant L858R/T790M, IC50
Description: (§1) In order to confirm that the compound represented by formula 1 provided in one aspect of the present invention acts as an allosteric inhibitor against WT and mutant of EGFR, the cell growth inhibitory effect was evaluated in BaF3 cells overexpressing WT and mutant of EGFR.
(§2) More specifically, the cell growth inhibitory ability of the compound of the present invention to the Ba/F3 cell line overexpressing WT and mutant of EGFR was evaluated using CellTiter 96 AQueous Non-Radioactive Cell Proliferation Assay system of Promega, as follows. AQueous Non-Radioactive Cell Proliferation Assay is a method of confirming cell growth inhibitory ability by measuring the degree of color development by reducing MTS (3-(4,5-Dimethylthiazol-2-yl)-5-(3-carboxymethoxyphenyl)-2-(4-sulfophenyl)-2H-tetrazolium) to Formazan by a reductase secreted by mitochondria present in living cells in a cell culture state. The Ba/F3 EGFR WT and Ba/F3 EGFR del19/T790M/C797S (DTC), Ba/F3 EGFR L858R (L), Ba/F3 EGFR L858R/T790M (LT), and Ba/F3 EGFR L858R/T790M/C797S (LTC) mutation cell lines used in the present invention were purchased from the laboratory of Professor Byung-cheol Cho, Yonsei University. All cell lines were cultured in RPMI supplemented with 10% FBS, 1% penicillin-streptomycin and 1 μg/ml of puromycine in a 5% CO2 incubator at 37° C.
(§3) The cell survival inhibitory effect of the compound according to each EGFR mutation was analyzed by the following analysis method.
(§4) BaF3 cells were distributed in a 96-well cell culture plate at the density of 2000˜10000 cells/100 μL/well, and cultured for 24 hours. Thereafter, the concentration of the compound represented by formula 1 provided in one aspect of the present invention was prepared to double the final concentrations of 0.1 nM, 1 nM, 10 nM, 100 nM, 1000 nM and 10000 nM, and the compound was treated to the plate (100 μL/well). The plate was reacted in an incubator at 37° C. for 72 hours. Then, MTS was treated to the plate (20 μL/well) and the plate was incubated at 37° C. for 2 to 4 hours. Finally, after measuring the absorbance at 490 nm using a microplate reader, the relative value compared to 0 nM (% Control) was obtained to confirm the cell growth inhibitory ability of the compound. The measured values were analyzed using Prism program (version 8.0, Graphpad Software, Inc.), and the IC50 value (Inhibition concentration 50), an indicator of the cell growth inhibitory ability of the compound, was calculated.

[2] = target: Ba/F3 EGFR L858R/T790M/C797S (LTC) (Homo sapiens, UniProt P00533, T790M/C797S/L858R, cells depend on it); assay: Cell growth inhibitory ability in Ba/F3 cells overexpressing EGFR L858R/T790M/C797S (MTS, CellTiter 96 AQueous); format: cell-based; conditions: 72 hours, MTS absorbance at 490 nm, read-out: Ba/F3 EGFR triple mutant L858R/T790M/C797S, IC50
Description: as §1, §2, §3, §4

Chain of Ba/F3 EGFR L858R/T790M (LT) (P00533 whole entry T790M/L858R): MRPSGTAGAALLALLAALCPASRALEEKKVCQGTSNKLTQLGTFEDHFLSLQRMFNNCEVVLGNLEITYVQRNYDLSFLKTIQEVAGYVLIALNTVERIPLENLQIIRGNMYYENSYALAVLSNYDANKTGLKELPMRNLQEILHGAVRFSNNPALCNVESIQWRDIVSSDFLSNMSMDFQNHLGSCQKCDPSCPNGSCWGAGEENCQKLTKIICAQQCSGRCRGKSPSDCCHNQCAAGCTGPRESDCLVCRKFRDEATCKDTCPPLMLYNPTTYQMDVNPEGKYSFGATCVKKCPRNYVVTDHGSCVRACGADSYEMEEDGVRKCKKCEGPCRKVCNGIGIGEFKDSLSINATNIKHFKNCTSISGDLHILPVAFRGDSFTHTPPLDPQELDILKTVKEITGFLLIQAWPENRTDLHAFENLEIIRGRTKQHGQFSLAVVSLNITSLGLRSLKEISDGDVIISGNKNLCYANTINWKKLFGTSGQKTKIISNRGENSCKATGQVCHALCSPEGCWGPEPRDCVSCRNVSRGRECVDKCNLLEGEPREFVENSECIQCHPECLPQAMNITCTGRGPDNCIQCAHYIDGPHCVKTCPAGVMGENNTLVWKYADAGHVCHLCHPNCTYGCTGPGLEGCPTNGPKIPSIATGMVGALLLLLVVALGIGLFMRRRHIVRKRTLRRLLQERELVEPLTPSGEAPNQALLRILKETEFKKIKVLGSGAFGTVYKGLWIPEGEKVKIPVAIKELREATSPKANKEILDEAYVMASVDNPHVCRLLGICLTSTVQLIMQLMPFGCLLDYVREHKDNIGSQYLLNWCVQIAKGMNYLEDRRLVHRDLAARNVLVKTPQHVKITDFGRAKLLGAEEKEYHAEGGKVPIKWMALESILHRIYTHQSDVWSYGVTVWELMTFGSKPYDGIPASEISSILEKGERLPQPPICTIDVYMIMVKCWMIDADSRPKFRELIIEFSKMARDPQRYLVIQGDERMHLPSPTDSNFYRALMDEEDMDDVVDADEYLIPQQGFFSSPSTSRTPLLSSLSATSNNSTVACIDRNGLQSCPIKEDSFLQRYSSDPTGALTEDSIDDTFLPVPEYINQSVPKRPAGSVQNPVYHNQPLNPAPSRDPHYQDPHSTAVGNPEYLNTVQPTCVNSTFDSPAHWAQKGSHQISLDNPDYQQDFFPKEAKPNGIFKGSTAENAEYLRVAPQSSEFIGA
Chain of Ba/F3 EGFR L858R/T790M/C797S (LTC) (P00533 whole entry T790M/C797S/L858R): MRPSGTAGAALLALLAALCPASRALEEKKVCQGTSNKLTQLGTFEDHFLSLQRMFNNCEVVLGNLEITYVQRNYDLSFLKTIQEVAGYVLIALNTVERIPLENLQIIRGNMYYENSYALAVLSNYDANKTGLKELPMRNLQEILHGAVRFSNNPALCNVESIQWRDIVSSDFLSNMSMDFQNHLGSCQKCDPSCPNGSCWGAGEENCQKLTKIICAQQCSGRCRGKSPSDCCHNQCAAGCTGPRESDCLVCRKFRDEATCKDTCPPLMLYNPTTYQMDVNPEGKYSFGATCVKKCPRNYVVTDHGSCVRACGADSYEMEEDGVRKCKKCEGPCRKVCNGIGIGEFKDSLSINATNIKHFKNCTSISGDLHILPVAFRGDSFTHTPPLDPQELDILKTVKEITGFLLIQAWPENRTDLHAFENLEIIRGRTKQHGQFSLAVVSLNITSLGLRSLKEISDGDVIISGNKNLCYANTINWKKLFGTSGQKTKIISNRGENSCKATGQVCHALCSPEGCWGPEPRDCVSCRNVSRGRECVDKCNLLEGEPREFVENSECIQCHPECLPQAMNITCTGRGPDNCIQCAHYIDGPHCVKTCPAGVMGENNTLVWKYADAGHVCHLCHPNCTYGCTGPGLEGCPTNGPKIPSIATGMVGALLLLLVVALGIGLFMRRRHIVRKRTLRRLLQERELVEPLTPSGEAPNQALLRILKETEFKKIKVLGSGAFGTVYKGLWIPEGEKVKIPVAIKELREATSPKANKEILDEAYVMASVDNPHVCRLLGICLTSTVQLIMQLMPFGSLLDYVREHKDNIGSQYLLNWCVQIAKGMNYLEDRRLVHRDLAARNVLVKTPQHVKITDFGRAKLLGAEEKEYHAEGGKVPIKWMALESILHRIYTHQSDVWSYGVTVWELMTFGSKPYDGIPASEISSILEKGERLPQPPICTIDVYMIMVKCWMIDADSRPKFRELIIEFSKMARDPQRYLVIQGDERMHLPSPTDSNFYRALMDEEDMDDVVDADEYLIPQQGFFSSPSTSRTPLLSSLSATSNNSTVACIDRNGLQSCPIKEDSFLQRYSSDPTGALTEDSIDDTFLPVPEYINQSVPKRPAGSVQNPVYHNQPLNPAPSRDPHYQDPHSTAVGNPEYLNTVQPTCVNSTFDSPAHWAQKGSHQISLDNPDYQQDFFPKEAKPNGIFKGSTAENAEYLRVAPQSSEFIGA

GI50 [1] [nM]	GI50 [2] [nM]	Structure (SMILES)
< 30	< 30	Cc1cc(C(=O)N[C@@H](c2cc3ccccc3[nH]2)c2cc(F)ccc2O)cc(-c2ccc(N3CCC(N)CC3)c(F)c2)c1 [Example 22, (R)-4′-(4-aminopiperidine-1-yl)-3′-fluoro-N-((5-fluoro-2-hydroxyphenyl)(1H-indole-2-yl)methyl)-5-methyl-[1,1′-biphenyl]-3-carboxamide]
< 30	< 30	Cc1cc(C(=O)N[C@@H](c2cc3ccccc3[nH]2)c2cc(F)ccc2O)cc(-c2ccc(N3CCC(N)CC3)cc2)c1 [Example 1, (R)-4′-(4-aminopiperidine-1-yl)-N-((5-fluoro-2-hydroxyphenyl)(1H-indole-2-yl)methyl)-5-methyl-[1,1′-biphenyl]-3-carboxamide]
< 30	< 30	Cc1cc(C(=O)N[C@@H](c2cc3ccccc3[nH]2)c2cc(F)ccc2O)cc(-c2ncc(N3CCC(N)CC3)cn2)c1 [Example 21, (R)-3-(5-(4-aminopiperidine-1-yl)pyrimidine-2-yl)-N-((5-fluoro-2-hydroxyphenyl)(1H-indole-2-yl)methyl)-5-methylbenzamide]
< 30	30 to 200	Cc1cc(C(=O)N[C@@H](c2cc3ccc(F)cc3[nH]2)c2cc(F)ccc2O)cc(-c2ccc(N3CCC(N)CC3)cc2)c1 [Example 26, (R)-4′-(4-aminopiperidine-1-yl)-N-((6-fluoro-1H-indole-2-yl)(5-fluoro-2-hydroxyphenyl)methyl)-5-methyl-[1,1′-biphenyl]-3-carboxamide]
< 30	< 30	Cc1cc(C(=O)N[C@@H](c2cc3ccccc3[nH]2)c2cc(F)ccc2O)cc(-c2cc(C)c(N3CCC(N)CC3)cn2)c1 [Example 33, (R)-3-(5-(4-aminopiperidine-1-yl)-4-methylpyridine-2-yl)-N-((5-fluoro-2-hydroxyphenyl)(1H-indole-2-yl)methyl)-5-methylbenzamide]
< 30	< 30	Cc1cc(C(=O)NC(c2cc3ccccc3[nH]2)c2cc(F)ccc2O)cc(-c2ccc(N3CCC(N)CC3)cc2)c1 (stereo not shown) [Example 32, 4′-(4-aminopiperidine-1-yl)-N-((5-fluoro-2-hydroxyphenyl)(1H-indole-2-yl)methyl)-5-methyl-[1,1′-biphenyl]-3-carboxamide]
30 to 200	> 200	NC1CCN(c2ccc(-c3cc(C(=O)N[C@@H](c4cc5ccccc5[nH]4)c4cc(F)ccc4O)ccn3)cc2)CC1 [Example 14, (R)-2-(4-(4-aminopiperidine-1-yl)phenyl)-N-((5-fluoro-2-hydroxyphenyl)(1H-indole-2-yl)methyl)isonicotinamide]
< 30	< 30	Cc1cc(C(=O)N[C@@H](c2cc3ccccc3[nH]2)c2cc(F)ccc2O)cc(-c2ncc(N3CC[C@@H](N)C3)cn2)c1 [Example 44, 3-[5-[(3R)-3-aminopyrrolidine-1-yl]pyrimidine-2-yl]-N—[(R)-(5-fluoro-2-hydroxy-phenyl)-(1H-indole-2-yl)methyl]-5-methyl-benzamide]
< 30	< 30	Cc1cc(C(=O)N[C@@H](c2cc3ccccc3[nH]2)c2cc(F)ccc2O)cc(-c2ccc(N3CCC(N)CC3)cc2C)c1 [Example 23, (R)-4′-(4-aminopiperidine-1-yl)-N-((5-fluoro-2-hydroxyphenyl)(1H-indole-2-yl)methyl)-2′,5-dimethyl-[1,1′-biphenyl]-3-carboxamide]
> 200	< 30	Cc1cc(C(=O)N[C@@H](c2cc3ccccc3[nH]2)c2cc(F)ccc2O)cc(-c2ncc(N3CCN(C(=O)OC(C)(C)C)CC3)cn2)c1 [Example 35, tert-butyl (R)-4-(2-(3-(((5-fluoro-2-hydroxyphenyl)(1H-indole-2-yl)methyl)carbamoyl)-5-methylphenyl)pyrimidine-5-yl)piperazine-1-carboxylate]
< 30	30 to 200	Cc1cc(C(=O)N[C@@H](c2cc3ccccc3[nH]2)c2cc(F)ccc2O)cc(-c2ccc(CN3CCC(N(C)C)CC3)cn2)c1 [Example 42]
> 200	> 200	Cc1c(C(=O)N[C@@H](c2cc3ccccc3[nH]2)c2cc(F)ccc2O)cccc1-c1ccc(N2CCC(N)CC2)cc1 [Example 30, (R)-4′-(4-aminopiperidine-1-yl)-N-((5-fluoro-2-hydroxyphenyl) (1H-indole-2-yl)methyl)-2-methyl-[1,1′-biphenyl]-3-carboxamide]
< 30	< 30	Cc1cc(C(=O)N[C@@H](c2cc3ccccc3[nH]2)c2cc(F)ccc2O)cc(-c2ccc(N3CCC(N)CC3)nc2)c1 [Example 19, (R)-3-(6-(4-aminopiperidine-1-yl)pyridine-3-yl)-N-((5-fluoro-2-hydroxyphenyl)(1H-indole-2-yl)methyl)-5-methylbenzamide]
> 200	> 200	COc1ccc(F)cc1[C@@H](NC(=O)c1ccnc(-c2ccc(N3CCC(N)CC3)cc2)c1)c1cc2ccccc2[nH]1 [Example 15, (R)-2-(4-(4-aminopiperidine-1-yl)phenyl)-N-((5-fluoro-2-methoxyphenyl)(1H-indole-2-yl)methyl)isonicotinamide]
